According to US11135233B2, “Methods for preventing or mitigating acute allergic responses using human milk oligosaccharides” (Abbott Laboratories, priority 2013, dated 2021):

Legend:
[1] = test system: skin mast cell response in sensitized mice; test: Passive cutaneous anaphylaxis (PCA), skin mast cell response, Evans blue dye in ear pinnae; format: in vivo; conditions: oral gavage 1 mg per mouse daily for 5 days; anti-DNP IgE i.d., DNP-HSA i.v.; FIG. 3
Protocol: The ability of HMOs to attenuate skin mast cell responses, as measured by the PCA response, was determined in sensitized mice fed 2′-FL, phosphate buffered saline (PBS), lactose, or 6′-SL by detecting the level of dye in ear pinnae indicative of the PCA response.
Mice were treated with 2′-FL, 6′-SL, lactose or PBS by oral gavage (1 mg per mouse) daily for 5 days. On day 4 mice were sensitized by intradermal (i.d.) injection of anti-DNP IgE (10 ng in […] saline) into the right ear pinnae while the left ear was injected with saline alone. Twenty-four hours later, DNP-HSA (10 mg/kg) together with Evans blue (100 mg/kg) was injected intravenously (i.v.). 1 hour following i.v. injection mice were euthanized and ear pinnae collected. Evans blue dye was extracted by incubating the skin samples in DMSO for 24 h at 37° C., and measuring the optical density (O.D.) at 650 nm. Data is presented as the difference in O.D. between the control (left) and sensitized (right) ear.

[2] = test system: mouse mast cell protease-1 (mMCP-1); test: OVA-induced food allergy model: serum mMCP-1 concentration; format: in vivo, mice; conditions: 200 ul of 5 mg/ml in PBS daily oral gavage; day 49; versus untreated and lactose treated OVA-sensitized controls; FIG. 6
Protocol: (§1) The ability of HMOs to attenuate the gastrointestinal mast cell response was determined by measuring the amount of diarrhea, change in body temperature, and change in mouse mast cell protease-1 (mMCP-1) levels in HMO treated mice relative to untreated and lactose treated control mice.
(§2) The OVA-induced food allergy model was modified from Yamaki and Yoshino (Allergy. 2012; 67:1259-70). Mice were sensitized with 50 μg of OVA (Sigma, St. Louis, Mo.) and 2 mg of alum (Sigma, St. Louis, Mo.) in 200 μl of Phosphate Saline Buffer (PBS) on day 0 and 14. HMO (200 ul of 5 mg/ml in PBS) treatments (2′-FL or 6′-SL) were administrated daily via oral gavage from day 27 to day 49. Mice were orally challenged with 50 μg of OVA every 3 days (Days: 28, 31, 34, 37, 40, 43, 46 and 49). On challenge days treatments were given 1 hour prior to OVA challenge. On day 49, serum, spleen and intestinal samples, were obtained. Non-sensitized PBS challenged mice served as negative controls.
Following body temperature measurements, mice were euthanized and serum mMCP-1 concentration was determined.

[3] = test system: OVA-sensitized mice; test: OVA-induced food allergy model: diarrhea score; format: in vivo; conditions: 200 ul of 5 mg/ml in PBS daily oral gavage day 27 to 49; versus untreated or lactose treated OVA-sensitized mice; FIG. 4A/4B
Protocol: as §1, §2
Diarrhea symptoms were scored by visually monitoring mice for 60 minutes after challenge as follows: 0, normal stools; 1, a few wet an unformed stools; 2, a number of wet an unformed stools with moderate perianal staining of the coat; 3, severe, watery stool with severe perianal staining of the coat.

[4] = test system: bone marrow mast cells (BMMC); test: In vitro mast cell degranulation (β-hexosaminidase release) in sensitized BMMC exposed to HMO; format: cell-based, Balb/c mice; conditions: anti-DNP IgE sensitized BMMC, HMO at a range of concentrations 30 min prior to DNP-HSA activation; FIG. 1A/1B
Protocol: The ability of HMOs to attenuate mast cell degranulation was tested by exposing sensitized bone marrow mast cells (BMMC) to either 2′-FL or 6′-SL.
BMMC from female Balb/c mice were obtained by culturing the bone marrow cells in enriched RPMI-1640 medium with 10% pokeweed mitogen-stimulated spleen as a source of mast cell growth factors for 3 weeks. The cells were kept at a concentration of 0.2×10^5 cells/ml in a 5% CO2, 37° C. environment, where the medium was changed weekly. BMMC were used for experiments after 3-4 weeks of culture (>95% mast cells). BMMC were sensitized with 1 ug/ml monoclonal anti-dinitrophenyl (DNP) IgE clone and seeded into 96-well plates at a final concentration of 1×10^6 cells/ml. […] Cell supernatants were harvested 30 min after DNP-HSA stimulation and stored at −20° C. until analyzed. […] Results are expressed as a percentage of total β-hexosaminidase. […]
This assay was conducted to assess in-vitro antigen-induced degranulation of mast cells. […] The release of β-hexosaminidase from mast cells was measured from the supernatant. […] The reaction was stopped with 100 μl citrate buffer pH 4.5 and read by using CytoFluor 2350 fluorescent spectrophotometer at 450 nm (excitation 356 nm). B-hexosaminidase release was presented as a percentage of the total B-hexosaminidase release determined by cell lysis with 1×triton-X.

[5] = test system: OVA-sensitized mice; test: OVA-induced food allergy model: rectal temperature after final antigen challenge; format: in vivo; conditions: 200 ul of 5 mg/ml in PBS daily oral gavage; 1 hour following final OVA challenge; versus untreated or lactose treated; FIG. 5A/5B
Protocol: as §1, §2
Rectal temperature was monitored for 1 hour following the final antigen challenge.

Row | Compound | difference in Evans blue dye (O.D. at 650 nm) between control (left) and sensitized (right) ear [1] | serum mMCP-1 levels [2] | stool (diarrhea) score [3] | β-hexosaminidase (β-Hex) activity relative to controls (percentage of total β-hexosaminidase) [4] | decline in rectal temperature [5]
1 | OC[C@H]1O[C@@H](O[C@H]2[C@H](O)[C@@H](O)C(O)O[C@@H]2CO)[C@H](O)[C@@H](O)[C@H]1O (stereo partly drawn) [lactose, reference compound] | greater difference in dye detected |  |  |  | 
2 | CC(=O)N[C@H]1[C@H]([C@H](O)[C@H](O)CO)O[C@@](OC[C@H]2O[C@@H](O[C@H]3[C@H](O)[C@@H](O)[C@H](O)O[C@@H]3CO)[C@H](O)[C@@H](O)[C@H]2O)(C(=O)O)C[C@@H]1O [6′-SL, 6′-sialyllactose] | greater difference in dye detected between right and left ears in PBS and lactose-treated mice than in mice treated with 2′-FL or 6′-SL | but not 6′-SL, produced a significant decrease | but not 6′-SL, Significantly Decreases Diarrhea Symptoms | significant decrease | but not 6′-SL, Mitigates the Decline in Rectal Temperature
